Measured values as given in article PMC9311539, “Antibacterial Activity against Clinical Isolates and In Vivo Efficacy of Coralmycins” (Antibiotics, 2022).
Values after ≈ are worked out from the molar mass of the structure shown. “Also recorded” adds a separate entry of the source. Read-outs that look alike come from different tables or passages of the source.

Experiments:
MSSA = experiment: MIC, broth microdilution, clinical isolates: MSSA; format: cell-based; conditions: Staphylococcus aureus, 26 clinical isolates
Experimental: (§1) To assess the MICs for antibiotic susceptibility, Gram-positive bacteria isolated from human clinical specimens were obtained from several general hospitals in Seoul, Korea, during 2002–2018. Staphylococcus aureus Giorgio and Streptococcus pneumoniae ATCC49619 were used to test in vivo efficacies against […], in mice.
(§2) The MICs of the antimicrobial agents were determined by a twofold microdilution broth method, as described by the Clinical and Laboratory Standards Institute. Briefly, test organisms were grown on Mueller–Hinton agar (MHA, BD Difco, Sparks, MD, USA) plates, subcultured into cation-adjusted Mueller–Hinton broth (CAMHB, BD Difco, Sparks, MD, USA), and incubated for 18 h at 35 °C. For S. pneumoniae culture, 5% sheep blood (Hanil Comed, Seongnam, Korea) was added. The cultured bacteria were diluted using phosphate-buffered saline (PBS) to achieve a bacterial cell density of approximately 5 × 10^6 CFU/mL. All test organisms were loaded into 96-well plates containing serial dilutions of the antimicrobial agents to achieve a concentration of 5 × 10^4 CFU/well. The plates were incubated at 35 °C for 18–20 h and examined for bacterial growth.

MRSA = experiment: MIC, broth microdilution, clinical isolates: MRSA; format: cell-based, Staphylococcus aureus
Experimental: as §1, §2

[1] = system: CNS (coagulase-negative staphylococci); experiment: MIC, broth microdilution, clinical isolates: CNS; format: cell-based
Experimental: as §1, §2

VRE = experiment: MIC, broth microdilution, clinical isolates: VRE; format: cell-based, vancomycin-resistant Enterococcus
Experimental: as §1, §2

S. pneumoniae = experiment: MIC, broth microdilution, clinical isolates: S. pneumoniae; format: cell-based, Streptococcus pneumoniae
Experimental: as §1, §2

[2] = system: Vancomycin-sensitive E. faecalis; experiment: MIC, broth microdilution, clinical isolates: vancomycin-sensitive E. faecalis; format: cell-based, Enterococcus faecalis
Experimental: as §1, §2

[3] = system: Vancomycin-sensitive E. faecium; experiment: MIC, broth microdilution, clinical isolates: vancomycin-sensitive E. faecium; format: cell-based, Enterococcus faecium
Experimental: as §1, §2

S. aureus Giorgio [4] = experiment: MIC against S. aureus Giorgio; format: cell-based, Staphylococcus aureus
Experimental: as §2

S. pneumoniae ATCC49619 [5] = experiment: MIC against S. pneumoniae ATCC49619; format: cell-based; conditions: Streptococcus pneumoniae, ATCC 25922 / ATCC 49619, printed as S. pneumoniae ATCC 25922; read-out: MIC
Experimental: as §2

MRSA CCARM 3167 [6] = experiment: MIC against MRSA CCARM 3167; format: cell-based; conditions: Staphylococcus aureus; read-out: MIC
Experimental: as §2

VRE 3 [7] = experiment: MIC against VRE 3; format: cell-based, vancomycin-resistant Enterococcus; conditions: Enterococcus, read-out: MIC
Experimental: as §2

S. aureus Giorgio [8] = experiment: Time-kill assay, S. aureus Giorgio; format: cell-based, Staphylococcus aureus
Experimental: (§3) Time-kill analysis was performed by the NCCLS M26-A method. The test organisms (S. aureus Giorgio, S. pneumoniae ATCC49619, MRSA CCARM 3167, and VRE 3) incubated in CAMHB for 18 h at 35 °C were diluted to 10^5 CFU/mL with fresh CAMHB, and the diluted cultures were preincubated for 2 h. For S. pneumoniae culture, 5% sheep blood (Hanil Comed, Seongnam, Korea) was added. […] Culture aliquots (0.1 mL) were removed after 0, 2, 4, 6 and 24 h of incubation, and serial 10-fold dilutions were prepared in saline as needed. The numbers of viable cells were determined on drug-free MHA plates after 20 h of incubation. A compound was considered bactericidal if the original inoculum was reduced by 3 log CFU/mL (99.9%) at each concentration or was considered bacteriostatic if the inoculum was reduced by 0–3 log CFU/mL.

S. pneumoniae ATCC49619 [9] = experiment: Time-kill assay, S. pneumoniae ATCC49619; format: cell-based, Streptococcus pneumoniae
Experimental: as §3

MRSA CCARM 3167 [10] = experiment: Time-kill assay, MRSA CCARM 3167; format: cell-based, Staphylococcus aureus
Experimental: as §3

VRE 3 [11] = experiment: Time-kill assay, VRE 3; format: cell-based, vancomycin-resistant Enterococcus
Experimental: as §3

S. aureus Giorgio [12] = experiment: Neutropenic mouse thigh infection model; format: in vivo, female ICR mice
Experimental: (§4) For the respiratory tract infection model, neutropenic mice were anesthetized and intranasally inoculated with a 50 μL suspension of S. pneumoniae ATCC49619 (4.4 × 10^8 CFU/mL). For the thigh infection model, the neutropenic mice were administered an intramuscular injection of a 100 μL suspension of S. aureus Giorgio (1 × 10^6 CFU/mL) into both thighs. For both models, four mice were included in each group. At 2 h after infection, two mice were sacrificed, and the infected thighs or lungs (n = 4) were excised to determine the initial bacterial levels. […] At 24 h after infection, the mice were sacrificed by cervical dislocation; their thighs or lungs were removed, homogenized, serially diluted with saline, and plated onto MHA to count the number of bacteria remaining. The number of viable bacterial cells (CFU) in the thighs or lungs of vehicle- and drug-treated mice was determined.

S. pneumoniae ATCC49619 [13] = experiment: Neutropenic mouse respiratory tract infection model; format: in vivo, female ICR mice
Experimental: as §4

[14] = second trial, s.c. 100 mg/kg bid

Structure (SMILES): CO[C@@H](C(N)=O)[C@H](NC(=O)c1ccc(NC(=O)c2ccc([N+](=O)[O-])cc2)cc1)C(=O)Nc1ccc(C(=O)Nc2ccc(C(=O)Nc3ccc(C(=O)O)c(O)c3OC(C)C)c(O)c2OC(C)C)cc1 [Coralmycin A, coralmycin A]
- MIC50 (MSSA; read-out: MIC50): 0.5 µg/mL (≈ 0.534 µM)
- MIC90 (MSSA; read-out: MIC90): 1 µg/mL (≈ 1.07 µM)
- MIC90 (MRSA; 42 clinical isolates): 1 µg/mL (≈ 1.07 µM)
- MIC50 (MRSA; Staphylococcus aureus, MRSA, 42 clinical isolates, read-out: MIC50): 1 µg/mL (≈ 1.07 µM)
- MIC90 (MRSA; Staphylococcus aureus, 42 MRSA isolates, read-out: MIC90): 1 µg/mL (≈ 1.07 µM)
- MIC90 ([1]; 31 clinical isolates): 1 µg/mL (≈ 1.07 µM)
- MIC50 ([1]; 31 clinical isolates, read-out: MIC50): 0.25 µg/mL (≈ 0.267 µM)
- MIC90 ([1]; 31 coagulase-negative staphylococci isolates, read-out: MIC90): 1 µg/mL (≈ 1.07 µM)
- MIC90 (VRE; 46 clinical isolates): 1 µg/mL (≈ 1.07 µM)
- MIC50 (VRE; Enterococcus, VRE, 46 clinical isolates, read-out: MIC50): 0.5 µg/mL (≈ 0.534 µM)
- MIC90 (VRE; Enterococcus, 46 VRE isolates, read-out: MIC90): 1 µg/mL (≈ 1.07 µM)
- MIC90 (S. pneumoniae; 27 clinical isolates): 1 µg/mL (≈ 1.07 µM)
- MIC90 (S. pneumoniae; Streptococcus pneumoniae, 27 S. pneumoniae isolates, read-out: MIC90): 1 µg/mL (≈ 1.07 µM)
- MIC50 (S. pneumoniae; Streptococcus pneumoniae, 27 clinical isolates, read-out: MIC50): 0.25 µg/mL (≈ 0.267 µM)
- MIC90 ([2]; 32 clinical isolates): 2 µg/mL (≈ 2.14 µM)
- MIC50 ([2]; Enterococcus faecalis, 32 clinical isolates, read-out: MIC50): 1 µg/mL (≈ 1.07 µM)
- MIC90 ([2]; vancomycin-sensitive Enterococcus faecalis, read-out: MIC90): 2 µg/mL (≈ 2.14 µM)
- MIC90 ([3]; 32 clinical isolates): 0.5 µg/mL (≈ 0.534 µM)
- MIC50 ([3]; Enterococcus faecium, 32 clinical isolates, read-out: MIC50): 0.25 µg/mL (≈ 0.267 µM)
- MIC90 ([3]; vancomycin-sensitive Enterococcus faecium, read-out: MIC90): 0.5 µg/mL (≈ 0.534 µM)
- MIC (S. aureus Giorgio [4]): 0.003 µg/mL (≈ 0.00321 µM)
- MIC (S. aureus Giorgio [4]; Staphylococcus aureus, read-out: MIC): 0.006 µg/mL (≈ 0.00641 µM)
- MIC (S. pneumoniae ATCC49619 [5]): 10 µg/mL (≈ 10.7 µM)
- MIC (MRSA CCARM 3167 [6]): 0.01 µg/mL (≈ 0.0107 µM)
- MIC (VRE 3 [7]): 0.5 µg/mL (≈ 0.534 µM)
- time-kill activity (S. aureus Giorgio [8]; 0.5× MIC (Figure S4)): bacteriostatic (considered bacteriostatic if the inoculum was reduced by 0–3 log CFU/mL)
- time-kill activity (S. aureus Giorgio [8]; 1× MIC): bactericidal (considered bactericidal if the original inoculum was reduced by 3 log CFU/mL (99.9%) at each concentration)
- time-kill activity (S. aureus Giorgio [8]; 2× and 4× MIC, 24 h): bactericidal (considered bactericidal if the original inoculum was reduced by 3 log CFU/mL (99.9%) at each concentration)
- time-kill activity (S. pneumoniae ATCC49619 [9]; 0.5× MIC (Figure S4)): bacteriostatic (considered bacteriostatic if the inoculum was reduced by 0–3 log CFU/mL)
- time-kill activity (S. pneumoniae ATCC49619 [9]; 1× MIC): bactericidal (considered bactericidal if the original inoculum was reduced by 3 log CFU/mL (99.9%) at each concentration)
- time-kill activity (S. pneumoniae ATCC49619 [9]; 2× and 4× MIC, 24 h): bactericidal (considered bactericidal if the original inoculum was reduced by 3 log CFU/mL (99.9%) at each concentration)
- time-kill activity (MRSA CCARM 3167 [10]; 1× MIC): bactericidal (considered bactericidal if the original inoculum was reduced by 3 log CFU/mL (99.9%) at each concentration)
- time-kill activity (MRSA CCARM 3167 [10]; 2× and 4× MIC, 24 h): bactericidal (considered bactericidal if the original inoculum was reduced by 3 log CFU/mL (99.9%) at each concentration)
- time-kill activity (VRE 3 [11]; 1× MIC): bactericidal (considered bactericidal if the original inoculum was reduced by 3 log CFU/mL (99.9%) at each concentration)
- time-kill activity (VRE 3 [11]; 2× and 4× MIC, 24 h): bactericidal (considered bactericidal if the original inoculum was reduced by 3 log CFU/mL (99.9%) at each concentration)
- antibacterial effect in thigh infection model (S. aureus Giorgio [12]; 20 mg/kg bid): almost no antibacterial effect
- antibacterial effect in thigh infection model (S. aureus Giorgio [12]; s.c. 4 and 20 mg/kg at 3 and 6 h after infection): almost no antibacterial effect
- in vivo effect (bacteriostatic or bactericidal) (S. pneumoniae ATCC49619 [13]; 4 mg/kg bid s.c.): bacteriostatic effects; also recorded: static effect
- in vivo effect (bacteriostatic or bactericidal) (S. pneumoniae ATCC49619 [13]; 20 mg/kg bid s.c.): bacteriostatic effects; also recorded: static effect
- in vivo effect (bacteriostatic or bactericidal) (S. pneumoniae ATCC49619 [13]; 100 mg/kg bid s.c.): significant bactericidal effects
- reduction of bacterial burden in the lungs compared to the 24-h control group (S. pneumoniae ATCC49619 [13]; first experiment, s.c. 4 mg/kg bid): 1.43 log10 CFU
- reduction of bacterial burden in the lungs compared to the 24-h control group (S. pneumoniae ATCC49619 [13]; first experiment, s.c. 20 mg/kg bid): 1.81 log10 CFU
- antibacterial effect in respiratory tract infection model (S. pneumoniae ATCC49619 [13]; first experiment, s.c. 4 and 20 mg/kg at 3 and 6 h after infection): significant antibacterial effects
- reduction of bacterial burden in the lungs compared to the 24-h control group (S. pneumoniae ATCC49619 [13]; second trial, s.c. 4 mg/kg bid): 1.45 log10 CFU
- reduction of bacterial burden in the lungs compared to the 24-h control group (S. pneumoniae ATCC49619 [13]; second trial, s.c. 20 mg/kg bid): 1.88 log10 CFU
- reduction of bacterial burden in the lungs compared to the 24-h control group (S. pneumoniae ATCC49619 [13]; [14]): 3.02 log10 CFU
- reduction of the starting bacterial burden compared to the 2-h control group (S. pneumoniae ATCC49619 [13]; [14]): 1.34 log10 CFU/lung
